Like-named read-outs stand apart in the source and are kept apart here. Values belong to the compound of their own block, whether it stands above or below them.
What was measured:
NAALADase = NAALADase (UniProt P70627); assay: In vitro assay of NAALADase activity ([3H]Glu liberated from [3H]NAAG, synaptosomal protein); type: biochemical; details: for NAALADase inhibiting activity (in words): comparison of Table III(a) compounds
Experimental: The following compounds were tested for in vitro inhibition of NAALADase activity.
Substrate and product were resolved by anion-exchange liquid chromatography. […] Quisqualate (100 μM) was included in parallel assay tubes to confirm the specificity of the measurements.

[1] = tested on: LNCAP human prostate tumors; assay: In vivo LNCaP tumor xenograft assay; set-up: species or system mice; details: daily intratumoral injection (0.25 μg/day), six weeks, p=0.04
Experimental: Referring now to FIGS. 3 and 4, LNCaP human prostate cancer cells were injected subcutaneously into the right flank of male nude mice. […] The 2-(phosphonomethyl)pentanedioic acid polymer was changed two times per week. Tumor volumes were monitored for 42 days after the beginning of treatment.
LNCaP is a human prostate cancer cell line that was established in 1973 from a […] of a patient who had been treated with 5-FU, doxorubicin, methotrexate, and CTX in the 3 months before the cell line was initiated. This line is androgen receptor positive and has been used in screening anticancer drugs that are targeted as hormone antagonists. […]
(§1) After the animals were released from quarantine, the mice were injected subcutaneously in the right flank with 1×10^7 LNCaP cells in Matrigel™ (0.1-ml injection volume) Tumor dimensions and body weight were measured twice weekly. Vernier calipers were used to measure tumors in three planes, and tumor volume (V) was calculated as follows: V=π(x×y×z)/6, where x, y, and z were the tumor measurements minus skin thickness. […]
The tumor were measured twice weekly for at least 8 weeks after the first treatment. The mean tumor volume for each group was calculated for each time point. Comparisons between groups at specific times were made using an unpaired, two-tailed t-test, and the results were analyzed using analysis of variance (ANOVA). […]

[2] = tested on: R3327 rat prostate tumors (Dunning R3327-G prostate cancer cells); assay: In vivo rat Dunning R3327 model
Experimental: Referring now to FIGS. 5 and 6, Dunning R3327-G prostate cancer cells were injected subcutaneously into both flanks of syngeneic male rats. […] In the second study, the anti-tumor growth activity of 2-[[phenylmethyl)hydroxyphosphinyl]methyl]pentanedioic acid was tested following daily intra-tumoral injections of the drug (0.1,1,10,100 μg) after the tumor reached an initial volume of 80-290 mm^3. Tumor volumes were subsequently monitored for 42 days after the beginning of drug treatment.
R3327-G is a cell line derived from an androgen-sensitive papillary adenocarcinoma derived from a spontaneously forming tumor in the rat prostate. […]
as §1, with “rats” for “mice”, “both flanks” for “the right flank”, “R3327-G” for “LNCaP”, “cells” for “cells in Matrigel™”, “volume).” for “volume)”
The tumors were measured twice weekly. The mean tumor volume for each group was calculated for each time point. Comparisons between groups at specific times were made using an unpaired, two-tailed t-test, and the results were analyzed using analyzed of variance (ANOVA). […]

mice = assay: In vivo toxicity of NAALADase inhibitors in mice; details: doses of 1 to 500 mg/kg, observed 5 consecutive days
Excerpt: The mice were subsequently observed two times per day for 5 consecutive days.

[3] = tested on: LNCAP cells (a prostate cancer cell line); assay: In vitro cancer assay: 3H-thymidine incorporation in LNCAP cells; type: cell-based, human; details: for 3H-Thymidine Incorporation (dpm/well): LNCAP cells, 7 days
Experimental: On the 7th day, the cells are pulsed with 3H-thymidine for 4 hours, harvested and measured for radioactivity. Values represent means +/−SEM of 6 separate cell wells for each treatment. All experiments are performed at least twice.
Cells are grown in RPMI-1640 media supplemented with 10% heat-inactivated fetal calf serum, 2 mM-glutamine, 100 units/ml penicillin, and 100 μg/ml streptomycin (Paragon) in a humidified incubator at 37° C. in a 5% CO2/95% O2 atmosphere.
The cells are suspended at 1×10^3 cells/ml in RPMI-1640 media and seeded into 24-well plates at 500 μl per well. […] On days 3, 5 and 7, media and drug are refreshed. On the 8th day following seeding, each well is pulsed with 1 μCi ^3H-thymidine (New England Nuclear) for 4 hours. Media is then removed and the wells washed 2 times with phosphate buffered saline (pH=7.4). […] 5 ml UltimaGold (Packard) scintillation cocktail is added and radioactivity is quantitated using a Beckman LS6001 scintillation counter.

[4] = Table III(c), read-out: Ki Value

Ki (NAALADase; Table III(b), read-out: Ki): 148 nM
SMILES: CCCCP(=O)(O)CC(CCC(=O)O)C(=O)O (stereo not shown)

Ki (NAALADase; Table III(b), read-out: Ki): 190 nM
SMILES: Cc1cccc(P(=O)(O)CC(CCC(=O)O)C(=O)O)c1 (stereo not shown)

Ki (NAALADase; [4]): 175 nM
SMILES: O=C(O)CCC(CP(=O)(O)Cc1ccccc1F)C(=O)O (stereo not shown)

Ki (NAALADase; [4]): 38 nM
SMILES: O=C(O)CCC(CP(=O)(O)Cc1c(F)c(F)c(F)c(F)c1F)C(=O)O (stereo not shown)

NAALADase inhibiting activity (in words) (NAALADase): lower NAALADase inhibiting activity
SMILES: O=C(O)CCC(CP(=O)(O)CCC(=O)O)C(=O)O (stereo not shown) [2-[[2-carboxyethyl)hydroxyphosphinyl]-methyl]pentanedioic acid)]

The remaining lines, values behind:

SMILES: O=C(O)CCC(CP(=O)(O)O)C(=O)O (stereo not shown) [2-(phosphonomethyl)pentanedioic acid]
Mean tumor volume versus control group, FIG. 3 [1]: statistically significant difference
Tumor growth, FIG. 5 ([2]; daily subcutaneous injections 1, 3, 10 and 30 mg/kg, 84 days): tumor growth slowed
Toxicological effect in mice (in words) (mice): non-toxic
Ki (NAALADase; Table III(a)): 0.275 ± 0.08 nM
NAALADase inhibiting activity (in words) (NAALADase): high level of NAALADase inhibiting activity
Ki (NAALADase; text restating Table III(a)): 0.27 nM
Potency relative to previously described inhibitors (NAALADase; times more potent): > 1000 times
LNCAP cell proliferation (incorporation of [3H]thymidine), FIG. 2 ([3]; 7-day treatment, 100 pM to 10 nM): sharp dose-dependent decrease
3H-Thymidine Incorporation (dpm/well) ([3]; 10 pM): 3078 ± 1006 dpm/well
3H-Thymidine Incorporation (dpm/well) ([3]; 100 pM): 2062 ± 595 dpm/well
3H-Thymidine Incorporation (dpm/well) ([3]; 1 nM): 1001 ± 52 dpm/well
3H-Thymidine Incorporation (dpm/well) ([3]; 10 nM): 664 ± 366 dpm/well

SMILES: O=C(O)CC(CP(=O)(O)O)C(=O)O (stereo not shown) [2-(phosphonomethyl)succinic acid, reference compound]
NAALADase inhibiting activity (in words) (NAALADase): much lower NAALADase inhibiting activity

SMILES: O=C(O)CCC(CP(=O)(O)Cc1ccccc1)C(=O)O (stereo not shown) [2-[(benzylhydroxyphosphinyl)methyl]pentanedioic acid]
Mean tumor volume relative to start of treatment (V/Vo) versus control group, FIG. 6 ([2]; daily intra-tumoral injections of 1 μg, 2.5 weeks, p=0.02): statistically significant difference

Source: patent US6372726B1, “Methods of cancer treatment using NAALADase inhibitors” (Guilford Pharmaceuticals Inc., priority 1996, dated 2002)
